Assay results reported in patent US9464093B2, “Substituted imidazo[4',5':4,5]cyclopenta[1,2-e]pyrrolo[1,2-a]pyrazines and oxazolo[4',5':4,5]cyclopenta[1,2-e]pyrrolo[1,2-a]pyrazines for treating brain cancer” (Mayo Foundation for Medical Education and Research, priority 2012, dated 2016).
Read-outs that look alike come from different tables or passages of the source.

How the values were obtained:
OCI-LY10 = assay: Cell proliferation assay OCI-LY10 (Example 6); assay type: cell-based; conditions: cells counted on the sixth day
Description: (§1) In-vitro assays were performed to assess the cytotoxic impact of AA analogues on breast cancer cell lines (MB-468, MB-453, and T47D), lymphoma cell lines (Raji and OCI-LY10), and glioblastoma multiforme cell line (U87). The three breast cancer cell lines represent three subtypes of breast cancer: triple-negative (MB-468), Her2-positive (MB-453), and hormone receptor positive (T47D).
(§2) The IC50 values obtained for each compound represents the concentration of the tested compound that is needed to decrease the cancer cell count by 50%. Cancer cells were seeded in triplicate at 50,000 cells per well of a 24-well plate in 0.5 ml medium. […] Cells were harvested and counted on the sixth day using a Beckman Coulter counter.

[1] = tested on: Raji B cells (Burkitt's lymphoma cells); assay: Cytotoxicity, cell count, Raji (Example 4); conditions: read-out: Cytotoxicity (IC50, μM) Raji
Description: Raji cells and MB-468 cells were purchased from American Tissue Culture (Manassas, Va.). […] Cells were harvested and counted on the third day in a Coulter Particle Counter (Beckman-Coulter Corp.: Brea, Calif.). IC50 values were calculated using GraphPad Prism 5 (GraphPad Software Inc., La Jolla, Calif.).

Raji = assay: Cell proliferation assay Raji (Example 6); assay type: cell-based; conditions: cells counted on the sixth day
Description: as §1, §2

T47D = assay: Cell proliferation assay T47D (Example 6); assay type: cell-based; conditions: cells counted on the sixth day
Description: as §1, §2

[2] = CNS pharmacokinetic analysis in rats (microdialysis, CE-UV); conditions: male, Sprague-Dawley, rat, in vivo, iv, 2.5 mg/kg
Description: Male Sprague-Dawley rats (Harlan, Indianapolis, Ind., USA) were used in this CNS pharmacokinetic study on Agelastatin A and its three analogues (CAA, CEAA, and DCEAA). Six rats were used for each drug. The rats were approximately 2 months old and weighed 300±25 g at the beginning of the study. All rats were housed in a temperature-controlled room (23±2° C.) with a 12:12 light dark cycle (lights off at 6:00 pm). Purina 5001 Rodent Chow and tap water were available ad libitum at all times.
Rats were anesthetized with gasiform isoflurane (1% isoflurane in a mixture of 20% oxygen and 80% nitrogen gas) and immobilized in a stereotaxic frame (KOPF Instruments, Tujunga, Calif.). Anesthesia was maintained during the entire procedure. The guide cannula (CMA Microdialysis Inc., Acton, Mass.) was stereotactically implanted into the lateral ventricle (AP −0.9, L 1.6, V 3.4, relative to bregma and skull), and then secured to the skull by screws and dental cement. Following surgery, each rat was housed individually with food and water ad libitum for 3 days for recovery from cannulation surgery. Microdialysis experiments were carried out on conscious, freely moving rats. On the day of the experiment, the stylet in the guide cannula was replaced with the microdialysis probe (CMA/11 with 4 mm membrane, CMA Microdialysis Inc., Acton, Mass.) and a vascular microdialysis probe (CMA/20 with 4 mm membrane, CMA Microdialysis Inc, Acton, Mass.)) was implanted into a jugular vein. The probes had inlet tubes connected to syringes to deliver artificial cerebrospinal fluid (146 mM NaCl, 1.2 mM CaCl2, 3 mM KCl, 1 mM MgCl2, 1.9 mM Na2HPO4, 0.1 mM NaH2PO4, pH 7.4) into the ventricle and Dulbecco's phosphate-buffered saline (D-PBS) into the blood at 0.5 μl/min flow rate. […]
The drug concentration in the microdialysate was measured by CE-UV (Agilent 3D CE). […] The absorbance from the drug was detected with UV at 280 nm. […]
Two-way repeated measures ANOVA followed by Tukey's test was used. […] CNS penetration is determined as the ratio of CSF and blood area under the curve (AUC).

Row | SMILES | IC50 (OCI-LY10; Homo sapiens, OCI-Ly10) [nM] | IC50 ([1]; Homo sapiens, Raji) [µM] | IC50 (Raji; Homo sapiens, Raji) [nM] | IC50 (T47D; Homo sapiens, T47D) [nM] | Kp [2] | IC50 (OCI-LY10) [nM] | IC50 ([1]; cells counted on the third day) [µM] | IC50 (Raji) [nM] | IC50 (T47D) [nM]
1 | CCN1C(=O)N[C@H]2[C@@H]3NC(=O)c4ccc(Cl)n4[C@@H]3C[C@]21O [CEAA, chloroethylagelastatin A] | 119 | 0.3 | 296 | 20.7 | 0.27 |  |  |  | 
2 | CN1C(=O)N[C@H]2[C@@H]3NC(=O)c4ccc(Cl)n4[C@@H]3C[C@]21O [CAA, chloroagelastatin A] | 102 | 0.18 | 181 | 29.8 | 0.16 |  |  |  | 
3 | CCN1C(=O)N[C@H]2[C@@H]3NC(=O)c4cc(Cl)c(Cl)n4[C@@H]3C[C@]21O [DCEAA, dichloroethylagelastatin A] | 429 | 0.62 | 619 | 101 | 0.307 |  |  |  | 
4 | CN1C(=O)N[C@H]2[C@@H]3NC(=O)c4ccc(Br)n4[C@@H]3C[C@]21O [AA, agelastatin A, reference compound] |  |  |  |  |  | 162 | 0.14 | 137 | 55.1
